{
  "source": "patent US12667585B2",
  "about": "“Immunotherapeutic nanoparticles and methods relating thereto” (Wake Forest University Health Sciences, priority 2019, dated 2026)",
  "tested_on": "BMDM, BMDC or AM cells",
  "test": "Real time RT-PCR of type I IFN and other inflammatory response genes",
  "format": "cell-based, C57BL/6 mouse",
  "settings": "100 nM cGAMP, 4 h",
  "description": "Real time RT-PCR of type I IFN and other inflammatory response genes induced by NP-cGAMP. BMDM, BMDC or AM cells […] were seeded into 6-well plates and cultured for 24 h. The cells were then incubated at 37° C. with free cGAMP or NP-cGAMP (100 nM cGAMP) suspended in complete culture medium for 4 h. All cellular RNA was collected using TRIzol reagent (Thermo Fisher). One microgram of total RNA was transcribed into cDNA using High-Capacity cDNA Reverse Transcription Kit (Thermo Fisher), and real-time quantitative PCR (qPCR) was performed using PowerUp SYBR Green Master Mix (Thermo Fisher) with primers for amplification of Gapdh, Ifnb1, Cxcl9, Cxcl10, Tnf, Il6, Il12b, Il1b, Ifna1, Il10, and Tgfb1 genes. mRNA levels were normalized against the housekeeping gene GAPDH.",
  "data": [
    {"smiles": "Nc1nc2c(ncn2[C@@H]2O[C@@H]3COP(=O)(O)O[C@H]4[C@@H](O)[C@H](n5cnc6c(N)ncnc65)O[C@@H]4COP(=O)(O)O[C@@H]2[C@@H]3O)c(=O)[nH]1", "note": "[free cGAMP, cyclic [G(2′,5′)pA(3′,5′)p]]", "values": [
      {"measurement": "expression of Ifnb1, Ifna1 and other proinflammatory genes (Tnf, Il1b, Il6, Il12b, Cxcl9,10)", "value": "only a modest increase"}
    ]}
  ]
}
